Residues, ends and D or L forms follow the SMILES beside them.

Usually IC50 stands for the point on the concentration scale where inhibition reaches its midpoint. Read a low IC50 as greater potency in that assay. Broadly, the half-life is the time in which the quantity being followed falls by half. Low values mean rapid decline, high ones slow decline.

The target of one series is HIV Rev protein (Human immunodeficiency virus type 1 group M subtype B, UniProt P04618). The series is classed as binding.
The conditions of series [1]: human, serum.

As for `C[C@@H]1NC(=O)[C@H](C)NC(=O)[C@@H]2CCCN2C(=O)[C@H](Cc2ccc(O)cc2)NC(=O)[C@H](CCCNC(=N)N)NC(=O)[C@H](Cc2ccc(O)cc2)NC(=O)[C@H](CO)NC1=O` [cRBP, cyclo-YPAASYR] (cyclo(AASYRYP)), the midpoint of inhibition on HIV Rev protein, the IC50, lay at 28 ± 5 nM. Besides, the half-life in series [1] was ~30 h.

(Values after publication PMC5220248 (Angewandte Chemie (International ed. in English), 2016).)
